# According to publication PMC5967881 (Journal of medicinal chemistry, 2017):
# Where “and” joins values, the source holds several entries; their conditions need not be identical. Equal entries are not always repeated.
# Molecular target: AM2-S31N proton channel (Influenza A virus, UniProt P0DOF5, S31N)
# Test: not given
# Assay type: biochemical
# Details: pH 5.5, 100 µM
row,Compound,Electrophysiological TEVC assay (% S31N channel inhibition) [%]
1,N-((5-(2-(methylsulfonyl)phenyl)isoxazol-3-yl)methyl)adamantan-1-amine [9m],47.4 ± 0.5

# Same assay, conditions: pH 5.5, 100 µM; 100 µM
row,Compound,Electrophysiological TEVC assay (% S31N channel inhibition)
1,"3-({[5-(3-methoxythiophen-2-yl)-1,2-oxazol-3-yl]methyl}amino)adamantan-1-ol [9s]",83.8 ± 3.3%
2,"c1ccc(-c2cc(CNC34CC5CC(CC(C5)C3)C4)no2)cc1 [9a, N-[(5-phenyl-1,2-oxazol-3-yl)methyl]adamantan-1-amine]",91.2 ± 1.5%
3,"OC12CC3CC(C1)CC(NCc1cc(-c4ccccc4Cl)on1)(C3)C2 [9d, 3-({[5-(2-chlorophenyl)-1,2-oxazol-3-yl]methyl}amino)adamantan-1-ol]",> 70%
4,"CSc1ccccc1-c1cc(CNC23CC4CC(CC(O)(C4)C2)C3)no1 [9f, 3-[({5-[2-(methylsulfanyl)phenyl]-1,2-oxazol-3-yl}methyl)amino]adamantan-1-ol]",> 70% and > 90%
5,"Oc1ccccc1-c1cc(CNC23CC4CC(CC(C4)C2)C3)no1 [9h, 2-(3-(((adamantan-1-yl)amino)methyl)isoxazol-5-yl)phenol]",> 70%
6,"Clc1ccc(-c2cc(CNC34CC5CC(CC(C5)C3)C4)no2)s1 [9q, N-((5-(5-chlorothiophen-2-yl)isoxazol-3-yl)methyl)adamantan-1-amine]",> 70%
7,"Clc1cc(-c2cc(CNC34CC5CC(CC(C5)C3)C4)no2)cs1 [9r, N-((5-(5-chlorothiophen-3-yl)isoxazol-3-yl)methyl)adamantan-1-amine]",> 70%
8,"COc1sccc1-c1cc(CNC23CC4CC(CC(C4)C2)C3)no1 [9t, N-((5-(2-methoxythiophen-3-yl)isoxazol-3-yl)methyl)adamantan-1-amine]",> 70%
9,"Clc1cc(-c2cc(CNC34CC5CC(CC(C5)C3)C4)no2)c(Cl)s1 [9u, N-((5-(2,5-dichlorothiophen-3-yl)isoxazol-3-yl)methyl)adamantan-1-amine]",> 70%
10,"OC12CC3CC(C1)CC(NCc1cc(-c4cc(Cl)sc4Cl)on1)(C3)C2 [9v, 3-({[5-(2,5-dichlorothiophen-3-yl)-1,2-oxazol-3-yl]methyl}amino)adamantan-1-ol]",> 70%

# System: A/Washington/29/2009 (H1N1)
# Test: microbe, parasite or virus in culture
# Assay type: cell-based
# Details: Influenza A virus, H1N1, read-out: EC50 against A/Washington/29/2009 (H1N1)
row,Compound,EC50 [nM]
1,"Clc1ccc(-c2cc(CNC34CC5CC(CC(C5)C3)C4)no2)s1 [9q, N-((5-(5-chlorothiophen-2-yl)isoxazol-3-yl)methyl)adamantan-1-amine]",100 to 200

# System: A/Denmark/528/2009 (H1N1)
# Test: microbe, parasite or virus in culture
# Assay type: cell-based
# Details: Influenza A virus, H1N1, read-out: EC50 against A/Denmark/528/2009 (H1N1)
row,Compound,EC50 [nM]
1,"Clc1ccc(-c2cc(CNC34CC5CC(CC(C5)C3)C4)no2)s1 [9q, N-((5-(5-chlorothiophen-2-yl)isoxazol-3-yl)methyl)adamantan-1-amine]",100 to 200
